Results as given in ChEMBL document CHEMBL4184279, “Synthesis, antimicrobial activity and acid dissociation constants of methyl 5,5-diphenyl-1-(thiazol-2-yl)pyrrolidine-2-carboxylate derivatives” (Bioorg Med Chem Lett, 2018).
In brackets after ≈: the same amount, converted by molar mass.

Key:
[1] = test system: Staphylococcus aureus; assay: Antibacterial activity against Staphylococcus aureus ATCC 25925; format: functional
[2] = test system: Bacillus spizizenii; assay: Antibacterial activity against Bacillus subtilis ATCC 6633; format: functional
[3] = test system: Aeromonas hydrophila; assay: Antibacterial activity against Aeromonas hydrophila ATCC 95080; format: functional
[4] = test system: Escherichia coli; assay: Antibacterial activity against Escherichia coli; format: functional
[5] = test system: Acinetobacter baumannii; assay: Antibacterial activity against Acinetobacter baumannii ATCC 02026; format: functional
[6] = test system: Nakaseomyces glabratus; assay: Antifungal activity against Candida glabrata ATCC 90030 after 48 hrs by microdilution broth method; format: functional; conditions: ATCC 90030, 48 h
[7] = test system: Candida tropicalis; assay: Antifungal activity against Candida tropicalis ATCC 750 after 48 hrs by microdilution broth method; format: functional; conditions: ATCC 750, 48 h
[8] = test system: Candida parapsilosis; assay: Antifungal activity against Candida parapsilosis ATCC 22019 after 48 hrs by microdilution broth method; format: functional; conditions: Lodderomyces parapsilosis, ATCC 22019, 48 h
[9] = test system: Mycobacterium tuberculosis; assay: Antimycobacterial activity against Mycobacterium tuberculosis H37Rv after 7 days by REMA; format: functional; conditions: 168 h
[10] = Acid dissociation constant, pKa for NH group of the compound in DMSO-water mixture at 25 +/- 0.1 degC by potentiometric method; format: physicochemical
[11] = Acid dissociation constant, pKa for SH group of the compound in DMSO-water mixture at 25 +/- 0.1 degC by potentiometric method; format: physicochemical
[12] = Acid dissociation constant, pKa for OH group of the compound in DMSO-water mixture at 25 +/- 0.1 degC by potentiometric method; format: physicochemical

SMILES | MIC [1] | MIC [2] | MIC [3] | MIC [4] | MIC [5] | MIC [6] | MIC [7] | MIC [8] | MIC [9] | pKa [10] | pKa [11] | pKa [12]
COC(=O)[C@H]1[C@@H](C(=O)OC)C(c2ccccc2)(c2ccccc2)N(c2nc(-c3ccccc3)c(C(=O)c3ccc(Br)cc3)s2)[C@H]1C(=O)OC | 125 µg/mL (≈ 169 µM) | 62.5 µg/mL (≈ 84.5 µM) | 62.5 µg/mL (≈ 84.5 µM) | 125 µg/mL (≈ 169 µM) | 62.5 µg/mL (≈ 84.5 µM) | 31.2 µg/mL (≈ 42.3 µM) | 125 µg/mL (≈ 169 µM) | 125 µg/mL (≈ 169 µM) | 3.91 µg/mL (≈ 5.29 µM) | 3.27 | 6.02 | 9.23
COC(=O)[C@H]1C[C@@H](C(=O)OC)C(c2ccccc2)(c2ccccc2)N1c1nc(-c2ccccc2)c(C(=O)c2ccc(C#N)cc2)s1 | 125 µg/mL (≈ 199 µM) | 250 µg/mL (≈ 398 µM) | 250 µg/mL (≈ 398 µM) | 125 µg/mL (≈ 199 µM) | 250 µg/mL (≈ 398 µM) | 31.2 µg/mL (≈ 49.8 µM) | 62.5 µg/mL (≈ 99.6 µM) | 62.5 µg/mL (≈ 99.6 µM) | 15.6 µg/mL (≈ 24.9 µM) | 3.78 | 5.61 | 8.67
COC(=O)[C@H]1C[C@@H](C(=O)OC)C(c2ccccc2)(c2ccccc2)N1c1nc(-c2ccccc2)c(C(=O)c2ccc(OC)cc2)s1 | 250 µg/mL (≈ 395 µM) | 250 µg/mL (≈ 395 µM) | 125 µg/mL (≈ 198 µM) | 250 µg/mL (≈ 395 µM) | 250 µg/mL (≈ 395 µM) | 62.5 µg/mL (≈ 98.8 µM) | 62.5 µg/mL (≈ 98.8 µM) | 125 µg/mL (≈ 198 µM) | 15.6 µg/mL (≈ 24.7 µM) | 2.46 | 6.31 | 10
COC(=O)[C@H]1C[C@@H](S(=O)(=O)c2ccccc2)C(c2ccccc2)(c2ccccc2)N1c1nc(-c2ccccc2)c(C(=O)c2ccc(F)cc2)s1 | 125 µg/mL (≈ 178 µM) | 62.5 µg/mL (≈ 88.9 µM) | 62.5 µg/mL (≈ 88.9 µM) | 125 µg/mL (≈ 178 µM) | 62.5 µg/mL (≈ 88.9 µM) | 31.2 µg/mL (≈ 44.5 µM) | 62.5 µg/mL (≈ 88.9 µM) | 62.5 µg/mL (≈ 88.9 µM) | 1.96 µg/mL (≈ 2.79 µM) | 3.4 | 5.84 | 8.73
COC(=O)[C@H]1C[C@@H](S(=O)(=O)c2ccccc2)C(c2ccccc2)(c2ccccc2)N1c1nc(-c2ccccc2)c(C(=O)c2ccc(C#N)cc2)s1 | 125 µg/mL (≈ 176 µM) | 62.5 µg/mL (≈ 88 µM) | 62.5 µg/mL (≈ 88 µM) | 125 µg/mL (≈ 176 µM) | 62.5 µg/mL (≈ 88 µM) | 31.2 µg/mL (≈ 44 µM) | 62.5 µg/mL (≈ 88 µM) | 62.5 µg/mL (≈ 88 µM) | 3.91 µg/mL (≈ 5.51 µM) | 3.56 | 5.78 | 8.83
COC(=O)[C@H]1[C@@H](C(=O)OC)C(c2ccccc2)(c2ccccc2)N(c2nc(-c3ccccc3)c(C(=O)c3ccc(C#N)cc3)s2)[C@H]1C(=O)OC | 125 µg/mL (≈ 182 µM) | 62.5 µg/mL (≈ 91.1 µM) | 62.5 µg/mL (≈ 91.1 µM) | 125 µg/mL (≈ 182 µM) | 62.5 µg/mL (≈ 91.1 µM) | 31.2 µg/mL (≈ 45.6 µM) | 62.5 µg/mL (≈ 91.1 µM) | 31.2 µg/mL (≈ 45.6 µM) | 7.81 µg/mL (≈ 11.4 µM) | 3.53 | 5.66 | 8.9
COC(=O)[C@H]1C[C@@H](C(=O)OC)C(c2ccccc2)(c2ccccc2)N1c1nc(-c2ccccc2)c(C(=O)c2ccc(Br)cc2)s1 | 250 µg/mL (≈ 367 µM) | 250 µg/mL (≈ 367 µM) | 250 µg/mL (≈ 367 µM) | 250 µg/mL (≈ 367 µM) | 125 µg/mL (≈ 183 µM) | 62.5 µg/mL (≈ 91.7 µM) | 62.5 µg/mL (≈ 91.7 µM) | 31.2 µg/mL (≈ 45.8 µM) | 7.81 µg/mL (≈ 11.5 µM) | 3.11 | 5.99 | 9.91
COC(=O)[C@H]1[C@@H](C(=O)OC)C(c2ccccc2)(c2ccccc2)N(c2nc(-c3ccccc3)c(C(=O)c3ccc(OC)cc3)s2)[C@H]1C(=O)OC | 125 µg/mL (≈ 181 µM) | 125 µg/mL (≈ 181 µM) | 62.5 µg/mL (≈ 90.5 µM) | 250 µg/mL (≈ 362 µM) | 62.5 µg/mL (≈ 90.5 µM) | 31.2 µg/mL (≈ 45.2 µM) | 62.5 µg/mL (≈ 90.5 µM) | 62.5 µg/mL (≈ 90.5 µM) | 15.6 µg/mL (≈ 22.6 µM) | 2.83 | 6.77 | 10.2
COC(=O)[C@H]1C[C@@H](C(=O)OC)C(c2ccccc2)(c2ccccc2)N1c1nc(-c2ccccc2)c(C(=O)c2ccc(F)cc2)s1 | 125 µg/mL (≈ 201 µM) | 250 µg/mL (≈ 403 µM) | 125 µg/mL (≈ 201 µM) | 125 µg/mL (≈ 201 µM) | 250 µg/mL (≈ 403 µM) | 62.5 µg/mL (≈ 101 µM) | 62.5 µg/mL (≈ 101 µM) | 62.5 µg/mL (≈ 101 µM) | 15.6 µg/mL (≈ 25.2 µM) | 2.63 | 6.09 | 9.69
COC(=O)[C@H]1C[C@@H](S(=O)(=O)c2ccccc2)C(c2ccccc2)(c2ccccc2)N1c1nc(-c2ccccc2)c(C(=O)c2ccccc2)s1 | 125 µg/mL (≈ 183 µM) | 62.5 µg/mL (≈ 91.3 µM) | 62.5 µg/mL (≈ 91.3 µM) | 125 µg/mL (≈ 183 µM) | 31.2 µg/mL (≈ 45.6 µM) | 31.2 µg/mL (≈ 45.6 µM) | 31.2 µg/mL (≈ 45.6 µM) | 62.5 µg/mL (≈ 91.3 µM) | 3.91 µg/mL (≈ 5.71 µM) | 3.26 | 5.9 | 8.64
COC(=O)[C@H]1C[C@@H](S(=O)(=O)c2ccccc2)C(c2ccccc2)(c2ccccc2)N1c1nc(-c2ccccc2)c(C(=O)c2ccc(OC)cc2)s1 | 125 µg/mL (≈ 175 µM) | 62.5 µg/mL (≈ 87.4 µM) | 62.5 µg/mL (≈ 87.4 µM) | 125 µg/mL (≈ 175 µM) | 62.5 µg/mL (≈ 87.4 µM) | 31.2 µg/mL (≈ 43.7 µM) | 62.5 µg/mL (≈ 87.4 µM) | 62.5 µg/mL (≈ 87.4 µM) | 3.91 µg/mL (≈ 5.47 µM) | 3.35 | 6.01 | 9.28
COC(=O)[C@H]1[C@@H](C(=O)OC)C(c2ccccc2)(c2ccccc2)N(c2nc(-c3ccccc3)c(C(=O)c3ccccc3)s2)[C@H]1C(=O)OC | 125 µg/mL (≈ 189 µM) | 62.5 µg/mL (≈ 94.6 µM) | 62.5 µg/mL (≈ 94.6 µM) | 125 µg/mL (≈ 189 µM) | 62.5 µg/mL (≈ 94.6 µM) | 31.2 µg/mL (≈ 47.3 µM) | 62.5 µg/mL (≈ 94.6 µM) | 62.5 µg/mL (≈ 94.6 µM) | 15.6 µg/mL (≈ 23.6 µM) | 3.35 | 5.81 | 8.5
COC(=O)[C@H]1[C@@H](C(=O)OC)C(c2ccccc2)(c2ccccc2)N(c2nc(-c3ccccc3)c(C(=O)c3ccc(F)cc3)s2)[C@H]1C(=O)OC | 125 µg/mL (≈ 184 µM) | 62.5 µg/mL (≈ 92.1 µM) | 62.5 µg/mL (≈ 92.1 µM) | 125 µg/mL (≈ 184 µM) | 62.5 µg/mL (≈ 92.1 µM) | 31.2 µg/mL (≈ 46 µM) | 62.5 µg/mL (≈ 92.1 µM) | 62.5 µg/mL (≈ 92.1 µM) | 15.6 µg/mL (≈ 23 µM) | 2.73 | 6.37 | 10.2
COC(=O)[C@H]1C[C@@H](S(=O)(=O)c2ccccc2)C(c2ccccc2)(c2ccccc2)N1c1nc(-c2ccccc2)c(C(=O)c2ccc(Br)cc2)s1 | 125 µg/mL (≈ 164 µM) | 62.5 µg/mL (≈ 81.8 µM) | 62.5 µg/mL (≈ 81.8 µM) | 125 µg/mL (≈ 164 µM) | 31.2 µg/mL (≈ 40.9 µM) | 31.2 µg/mL (≈ 40.9 µM) | 62.5 µg/mL (≈ 81.8 µM) | 62.5 µg/mL (≈ 81.8 µM) | 0.98 µg/mL (≈ 1.28 µM) | 2.97 | 5.99 | 9.53
CC1(C)S[C@@H]2[C@H](NC(=O)[C@H](N)c3ccccc3)C(=O)N2[C@H]1C(=O)O [AMPICILLIN] | 31.2 µg/mL (≈ 89.4 µM) | 0.98 µg/mL (≈ 2.8 µM) | 31.2 µg/mL (≈ 89.4 µM) | 15.6 µg/mL (≈ 44.7 µM) | 125 µg/mL (≈ 358 µM) |  |  |  |  |  |  | 
CC[C@@H](CO)NCCN[C@@H](CC)CO [ETHAMBUTOL] |  |  |  |  |  |  |  |  | 1.96 µg/mL (≈ 9.59 µM) |  |  | 
OC(Cn1cncn1)(Cn1cncn1)c1ccc(F)cc1F [FLUCONAZOLE] |  |  |  |  |  | 3.9 µg/mL (≈ 12.7 µM) | 15.6 µg/mL (≈ 51 µM) | 3.9 µg/mL (≈ 12.7 µM) |  |  |  | 
NNC(=O)c1ccncc1 [ISONIAZID] |  |  |  |  |  |  |  |  | 0.98 µg/mL (≈ 7.15 µM) |  |  | 
